Reference: US20210254056A1, “IDENTIFICATION AND TARGETED MODULATION OF GENE SIGNALING NETWORKS” (CAMP4 THERAPEUTICS CORPORATION, priority 2017, published 2021)

Test system: hepatocytes
Assay: RNA-seq of hepatocytes treated with Phase III failure compounds
Conditions: hepatocytes
Method: RNA-seq was performed to determine the effects of the compounds on hepatocytes.
Significance was determined by the criteria of FPKM≥0.5, a log 2(fold-change)≥1, and a […].

CCC(CC)[C@H](NC(C)=O)[C@@H]1[C@H](O)[C@@H](C(=O)O)C[C@H]1NC(=N)N.O.O.O [peramivir (trihydrate), peramivir]
RNA-seq results: MCCC1 expression (gene MCCC1): −0.27 | RNA-seq results: MCCC2 expression (gene MCCC2): −0.31 | RNA-seq results: MCM6 expression (gene MCM6): −0.34 | RNA-seq results: MEN1 expression (gene MEN1): 0.18 | RNA-seq results: MET expression (gene MET): −0.27 | RNA-seq results: MGAT2 expression (gene MGAT2): −0.09 | RNA-seq results: MKS1 expression (gene MKS1): 0.23 | RNA-seq results: MLH1 expression (gene MLH1): −0.18 | RNA-seq results: MMAA expression (gene MMAA): −0.25 | RNA-seq results: MMAB expression (gene MMAB): −0.09 | RNA-seq results: MMADHC expression (gene MMADHC): −0.38 | RNA-seq results: MOCS1 expression (gene MOCS1): 0.03 | RNA-seq results: MOGAT2 expression (gene MOGAT2): 0.66 | RNA-seq results: MOGS expression (gene MOGS): 0.33 | RNA-seq results: MPZ expression (gene MPZ): 0.37 | RNA-seq results: MRPL3 expression (gene MRPL3): −0.47 | RNA-seq results: MTHFR expression (gene MTHFR): 0.37 | RNA-seq results: MTM1 expression (gene MTM1): −0.29 | RNA-seq results: MTO1 expression (gene MTO1): −0.13 | RNA-seq results: MTR expression (gene MTR): 0.10 | RNA-seq results: MTRR expression (gene MTRR): −0.43 | RNA-seq results: MTTP expression (gene MTTP): −0.18 | RNA-seq results: MVK expression (gene MVK): 0.07 | RNA-seq results: MYH9 expression (gene MYH9): 0.20 | RNA-seq results: MYO5B expression (gene MYO5B): −0.08 | RNA-seq results: NAGS expression (gene NAGS): 0.31 | RNA-seq results: NARS2 expression (gene NARS2): −0.42 | RNA-seq results: NAT2 expression (gene NAT2): −0.40 | RNA-seq results: NBAS expression (gene NBAS): −0.22 | RNA-seq results: NCF2 expression (gene NCF2): −0.20 | RNA-seq results: NEK1 expression (gene NEK1): −0.22 | RNA-seq results: NEK8 expression (gene NEK8): 0.47 | RNA-seq results: NEU1 expression (gene NEU1): −0.25 | RNA-seq results: NFKB2 expression (gene NFKB2): 0.30 | RNA-seq results: NFKBIA expression (gene NFKBIA): −0.19 | RNA-seq results: NFU1 expression (gene NFU1): −0.52 | RNA-seq results: NGLY1 expression (gene NGLY1): −0.40 | RNA-seq results: NHP2 expression (gene NHP2): 0.65 | RNA-seq results: NME1 expression (gene NME1): 0.00 | RNA-seq results: NOD2 expression (gene NOD2): 0.30 | RNA-seq results: NOP10 expression (gene NOP10): 0.03 | RNA-seq results: NOTCH1 expression (gene NOTCH1): 0.23 | RNA-seq results: NOTCH2 expression (gene NOTCH2): 0.01 | RNA-seq results: NPC1 expression (gene NPC1): −0.09 | RNA-seq results: NR1H4 expression (gene NR1H4): 0.00 | RNA-seq results: NUBPL expression (gene NUBPL): −0.11 | RNA-seq results: NUDT7 expression (gene NUDT7): −0.70 | RNA-seq results: NUDT12 expression (gene NUDT12): −0.32 | RNA-seq results: OAT expression (gene OAT): −0.40 | RNA-seq results: OPA3 expression (gene OPA3): 0.14 | RNA-seq results: OTC expression (gene OTC): −0.33 | RNA-seq results: PAF1 expression (gene PAF1): −0.04 | RNA-seq results: PAH expression (gene PAH): −0.22 | RNA-seq results: PANK2 expression (gene PANK2): −0.22 | RNA-seq results: PAOX expression (gene PAOX): −0.04 | RNA-seq results: PC expression (gene PC): 0.27 | RNA-seq results: PCCA expression (gene PCCA): −0.23 | RNA-seq results: PCK2 expression (gene PCK2): 0.18 | RNA-seq results: PCSK9 expression (gene PCSK9): 0.46 | RNA-seq results: PCYT1A expression (gene PCYT1A): −0.07 | RNA-seq results: PDGFRA expression (gene PDGFRA): −0.06 | RNA-seq results: PDP1 expression (gene PDP1): −0.30 | RNA-seq results: PEPD expression (gene PEPD): 0.03 | RNA-seq results: PEX11A expression (gene PEX11A): −0.27 | RNA-seq results: PEX12 expression (gene PEX12): −0.20 | RNA-seq results: PEX14 expression (gene PEX14): 0.19 | RNA-seq results: PFKM expression (gene PFKM): 0.45 | RNA-seq results: PGM1 expression (gene PGM1): −0.24 | RNA-seq results: PHGDH expression (gene PHGDH): 0.38 | RNA-seq results: PHKA1 expression (gene PHKA1): −0.18 | RNA-seq results: PHKA2 expression (gene PHKA2): 0.11 | RNA-seq results: PHKB expression (gene PHKB): −0.39 | RNA-seq results: PHYH expression (gene PHYH): −0.26 | RNA-seq results: PIEZO1 expression (gene PIEZO1): 0.30 | RNA-seq results: PIGA expression (gene PIGA): −0.37 | RNA-seq results: PIGM expression (gene PIGM): −0.35 | RNA-seq results: PKD1 expression (gene PKD1): 0.61 | RNA-seq results: PKD2 expression (gene PKD2): 0.28 | RNA-seq results: PKHD1 expression (gene PKHD1): 0.34 | RNA-seq results: PKLR expression (gene PKLR): 0.35 | RNA-seq results: PLA2G6 expression (gene PLA2G6): 0.59 | RNA-seq results: PLEKHM1 expression (gene PLEKHM1): 0.10 | RNA-seq results: PMVK expression (gene PMVK): 0.39 | RNA-seq results: PNP (gene PNP): −0.40 | RNA-seq results: PNPLA2 (gene PNPLA2): 0.02 | RNA-seq results, POLD1 (gene POLD1): 0.24 | RNA-seq results: POLD1 (gene POLD1): 0.30 | RNA-seq results, POLG2 (gene POLG2): 0.19 | RNA-seq results: POLG2 (gene POLG2): 0.22 | RNA-seq results, POLG (gene POLG): 0.03 | RNA-seq results: POLG (gene POLG): 0.10 | RNA-seq results, POR (gene POR): 0.82 | RNA-seq results: POR (gene POR): 0.16 | RNA-seq results, PPAPDC2 (gene PPAPDC2): −0.01 | RNA-seq results: PPAPDC2 (gene PPAPDC2): −0.14 | RNA-seq results, PPARA (gene PPARA): 0.09 | RNA-seq results: PPARA (gene PPARA): −0.14 | RNA-seq results, PPARG (gene PPARG): 0.16 | RNA-seq results: PPARG (gene PPARG): −0.47 | RNA-seq results, PPM1K (gene PPM1K): 0.13 | RNA-seq results: PPM1K (gene PPM1K): −0.24 | RNA-seq results, PRKCD (gene PRKCD): 0.03 | RNA-seq results: PRKCD (gene PRKCD): 0.06 | RNA-seq results, PRODH (gene PRODH): 0.2 | RNA-seq results: PRODH (gene PRODH): −0.14 | RNA-seq results, PROS1 (gene PROS1): −0.19 | RNA-seq results: PROS1 (gene PROS1): −0.20 | RNA-seq results, PROZ (gene PROZ): 0.28 | RNA-seq results: PROZ (gene PROZ): 0.10 | RNA-seq results, PSAT1 (gene PSAT1): 0.26 | RNA-seq results: PSAT1 (gene PSAT1): −0.18 | RNA-seq results, PSMB8 (gene PSMB8): 0.02 | RNA-seq results: PSMB8 (gene PSMB8): 0.08 | RNA-seq results, PSPH (gene PSPH): 0.05 | RNA-seq results: PSPH (gene PSPH): −0.12 | RNA-seq results, PTCH1 (gene PTCH1): 0.28 | RNA-seq results: PTCH1 (gene PTCH1): 0.20 | RNA-seq results, PTRF (gene PTRF): −0.15 | RNA-seq results: PTRF (gene PTRF): 0.25
